Experimental data as given in ChEMBL document CHEMBL4033705, “Screening for bioactive natural products from a 67-compound library of Glycyrrhiza inflata” (Bioorg Med Chem, 2017).

Experiments:
[1] = test system: MCF7; experiment: Growth inhibition of human MCF7 cells at 10 uM after 24 hrs by MTS assay relative to control; type: functional; conditions: MCF7, 24 h, read-out: GI
[2] = test system: SW480; experiment: Growth inhibition of human SW480 cells at 10 uM after 24 hrs by MTS assay relative to control; type: functional; conditions: SW480, 24 h, read-out: GI
[3] = test system: HepG2; experiment: Growth inhibition of human HepG2 cells at 10 uM after 24 hrs by MTS assay relative to control; type: functional; conditions: HepG2, 24 h, read-out: GI
[4] = test system: RAW264.7; experiment: Antiinflammatory activity in mouse RAW264.7 cells assessed as inhibition of LPS-induced NO production at 10 uM after 24 hrs by Griess reagent based assay relative to control; type: functional; conditions: RAW264.7, 24 h
[5] = organism: Homo sapiens; experiment: Inhibition of LPS-induced NF-kappaB transcription (unknown origin) expressed in human SW480 cells at 10 uM by luciferase reporter gene assay; type: cell-based
[6] = target: T1, Tyrosine-protein phosphatase non-receptor type 1 (Homo sapiens) (UniProt P18031); experiment: Inhibition of recombinant human PTP1B using p-nitrophenyl phosphate as substrate at 10 uM after 30 mins relative to control
T1 sequence (whole entry): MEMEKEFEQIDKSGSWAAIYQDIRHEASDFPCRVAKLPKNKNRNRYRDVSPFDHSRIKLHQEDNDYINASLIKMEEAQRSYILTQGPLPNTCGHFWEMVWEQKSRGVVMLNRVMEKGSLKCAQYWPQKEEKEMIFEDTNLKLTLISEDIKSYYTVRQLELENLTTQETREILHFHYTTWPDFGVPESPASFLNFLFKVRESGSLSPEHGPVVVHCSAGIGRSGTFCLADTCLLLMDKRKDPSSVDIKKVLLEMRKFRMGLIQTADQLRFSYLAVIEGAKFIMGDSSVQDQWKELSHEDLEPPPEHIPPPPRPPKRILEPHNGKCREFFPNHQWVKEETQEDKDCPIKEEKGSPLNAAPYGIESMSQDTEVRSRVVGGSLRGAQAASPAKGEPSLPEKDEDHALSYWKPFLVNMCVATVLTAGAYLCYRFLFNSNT

[7] = target: Mushroom tyrosinase (Agaricus bisporus) (UniProt O42713+Q00024+C7FF04+C7FF05); experiment: Inhibition of mushroom tyrosinase at 10 uM using L-tyrosine as substrate incubated for 15 mins followed by substrate addition relative to control

SMILES	inhibition of growth at 10 µM [1] [%]	inhibition of growth at 10 µM [2] [%]	inhibition of growth at 10 µM [3] [%]	inhibition at 10 µM [4] [%]	inhibition [5] [%]	inhibition [6] [%]	inhibition [7] [%]
CC1(C)[C@@H](OC=O)CC[C@]2(C)[C@H]3C(=O)C=C4[C@@H]5C[C@@](C)(C(=O)O)CC[C@]5(C)CC[C@@]4(C)[C@]3(C)CC[C@@H]12	17	3	13	2	0	3	0
O=c1c(-c2ccc(O)c(O)c2)coc2cc(O)ccc12	0	43	3	0	0	28	9
CC1(C)C=Cc2cc(-c3coc4cc(O)cc(O)c4c3=O)ccc2O1	2 to 23	13 to 70	11	10	27	27	14
CC(C)=CCc1c(O)ccc(-c2cc3ccc(O)cc3o2)c1O [2'-O-DEMETHYLBIDWILLOL B]	16	36	8	32	42	24	12
O=C(/C=C/c1ccc(O)c(O)c1)c1ccc(O)c(O)c1	5	10	8	1	13	1	16
CC(C)=CCc1c(O)ccc(C(=O)/C=C/c2ccc(O)c(O)c2)c1O	12	11	1	11	14	16	14
CC(C)=CCc1cc([C@@H]2CC(=O)c3ccc(O)cc3O2)ccc1O [ABYSSINONE II]	25	22	4	8	0	5	4
CC(C)=CCc1c(O)cc2occ(-c3ccc4c(c3)C=CC(C)(C)O4)c(=O)c2c1O [ISOCHANDALON]	73	58 to 81	7	0	3	94	3
CC(C)=CCc1c(O)ccc(C(=O)/C=C/c2ccc(O)cc2)c1O [ISOBAVACHALCONE]	16	20	39	0	0	73	14
O=c1c(-c2ccc(O)cc2)coc2cc(O)cc(O)c12 [GENISTEIN]	6	21	29	13	14	29	2
COc1ccc(-c2coc3c(O)c(O)c(CC=C(C)C)cc3c2=O)cc1	4	51	48	17	21	74	7
CC(C)=CCc1cc2c(=O)cc(-c3ccc4c(c3)C=CC(C)(C)O4)oc2cc1O	7	51	11	1	3	33	9
CC(C)=CCc1c(O)ccc(-c2coc3cc(O)cc(O)c3c2=O)c1O	18	26	5	20	5	7	5
O=C1C[C@@H](c2cc(O)cc(O)c2)Oc2cc(O)ccc21	13	4	0	15	1	2	12
CC(C)=CCc1c(O)cc2occ(-c3ccc(O)cc3)c(=O)c2c1O [WIGHTEONE]	17	34	6	0	11	19	15
COc1ccc(-c2coc3cc(O)ccc3c2=O)cc1 [FORMONONETIN]	2	4	0	0	3	33	10
CC(C)=CCc1c(O)ccc(-c2coc3cc(O)c(CC=C(C)C)c(O)c3c2=O)c1O	4	46	0	0	15	78	2
O=C1C[C@@H](c2ccc(O)cc2)Oc2cc(O)cc(O)c21 [NARINGENIN]	21	28	28	6	22	43	10
CC(C)=CCc1c(O)ccc2c1oc1c3ccc(O)cc3oc(=O)c21 [ISOSOJAGOL]	12	26	23	15	28	21	11
CC1(C)C=Cc2cc(-c3coc4cc(O)ccc4c3=O)cc(O)c2O1	0	5	14	22	23	0	0
O=C1C[C@@H](c2ccc(O)cc2)Oc2cc(O)ccc21 [LIQUIRTIGENIN]	27	9	13	0	19	36	2
O=C(/C=C/c1ccc(O)cc1)c1ccc(O)cc1O [ISOLIQUIRITIGENIN]	0	16	0	14	6	48	12
COc1c(/C=C/C(=O)c2ccc(O)cc2)ccc(O)c1CC=C(C)C	26	25	22	1	9	20	5
COc1ccc2c(c1)OC[C@H]1c3ccc(O)cc3O[C@@H]21	20	17	5	3	0	2	31
CC(C)=CCc1c(O)ccc(-c2coc3cc(O)ccc3c2=O)c1O	36	35	11	25	3	56	6
CC1(C)C=Cc2c(O)ccc([C@@H]3COc4cc(O)cc(O)c4C3=O)c2O1	13	8	6	2	24	1	9
CC(C)=CCc1c(O)cc(O)c2c(=O)c(-c3ccc(O)cc3)coc12	23	13	23	18	25	0	16
COc1cc(O)c(-c2coc3cc(O)ccc3c2=O)c(OC)c1CC=C(C)C	33	0	0	14	3	18	15
O=c1cc(-c2ccc(O)cc2)oc2cc(O)ccc12	11	22	18	5	0	55	11
CC(C)=CCc1cc([C@@H]2CC(=O)c3ccc(O)cc3O2)cc2c1OC(C)(C)C=C2 [ABYSSINONES III]	0	26	9	17	28	43	6
